In article PMC3608651, “A Broad Profile of Co-Dominant Epitopes Shapes the Peripheral Mycobacterium tuberculosis Specific CD8+ T-Cell Immune Response in South African Patients with Active Tuberculosis” (PLoS ONE, 2013):
Like-named read-outs stand apart in the source and are kept apart here.

Columns and labels:
Format in all cases: binding
[1] = target: HLA-A*02:01 (Homo sapiens, UniProt P04439, D140Y/D185E/D98H/E176V/E277Q/G131W/G231S/I119V/I121R/I166T/I218V/L300P/L318F/N151K/N90K/P208A/P217A/Q86G/Q94H/R138H/R169H/T345S); details: plate-bound monomer 0.5 µg/ml, duplicated experiments, positive binder >40%
[2] = target: HLA-A*24:02 (Homo sapiens, UniProt P04439, D101N/D140Y/D185E/E176V/E190D/F33S/G103R/G107R/I119L/I121M/I306V/K335N/L105A/L180Q/L300P/N151K/N90K/Q86E/Q94H/R106L/R138H/R89G/T104I/T345S/V100E/W191G/Y123F); details: duplicated experiments, positive binder >40%
[3] = target: HLA-A*30:01 (Homo sapiens, UniProt P04439, D140H/D185E/E176W/F33S/G80R/H175R/K168Q/R138E/R41S); details: duplicated experiments, positive binder >40%
[4] = target: T1, HLA-A*30:02 (Homo sapiens, UniProt P04439, D101N/D140H/D185E/E176R/F33S/G80R/H175R/K168Q/Q94H/R138E/R41S/V100E); details: duplicated experiments, positive binder >40%
[5] = target: T1, HLA-A*30:02
[6] = target: T1, HLA-A*30:02; details: time points 0-8 h
[7] = target: HLA-A*68:01 (Homo sapiens, UniProt P04439, A269V/D185E/E176V/E277Q/E87N/F33Y/G231S/I121M/I166T/I218V/L180W/L300P/L318F/N151K/P208A/P217A/Q86R/R169H/T345S); details: duplicated experiments, positive binder >40%
[8] = target: HLA-B*07:02 (Homo sapiens, UniProt P01889); details: percent relative the binding of positive control peptide […]; duplicated experiments; positive binder >40%
[9] = target: HLA-B*58:01 (Homo sapiens, UniProt P01889, A329T/C349S/D201E/D98Y/E176V/E187L/E204Q/E69T/G107R/I218V/I90N/K202T/L105A/L119I/N104I/N87E/Q89R/Q94S/R106L/R155S/R180L/R86G/S101N/S121R/S35A/S48A/T118I/V127L/V306I/V36M/Y140S/Y91M); details: duplicated experiments, positive binder >40%
[10] = target: HLA-C*07:01 (Homo sapiens, UniProt P10321, K90N/S123Y); details: duplicated experiments, positive binder >40%
[11] = percent relative the binding of positive control peptide […]

Substance | Bind A*02:01 [1, 11] | Bind A*24:02 [2, 11] | Bind A*30:01 [3, 11] | Bind A*30:02 [4, 11] | Aff A*30:02 (ED50) [5] | O-rate A*30:02 (t1/2) [6] | Bind A*68:01 [7, 11] | Bind B*07:02 [8] | Bind B*58:01 [9, 11] | Bind C*07:01 [10, 11] | Bind A*02:01 ([1]; percent relative the binding of positive control peptide FLPSDFFPSV) | Bind A*24:02 ([2]; percent relative the binding of positive control peptide RYLKDQQLL) | Bind A*30:01 ([3]; percent relative the binding of positive control peptide KTKDIVNGL) | Bind A*30:02 ([4]; percent relative the binding of positive control peptide KIQNFRVYY) | Bind A*68:01 ([7]; percent relative the binding of positive control peptide KTGGPIYKR) | Bind B*58:01 ([9]; percent relative the binding of positive control peptide IAMESIVIW) | Bind C*07:01 ([10]; percent relative the binding of positive control peptide KYFDEHYEY)
AYHPQQFIY | 13% | 60% | 6% | 111% | 1E -07 M | 114 min | 5% | 0% | 35% | 43% |  |  |  |  |  |  | 
AYHSMSSTH [Rv0288_68–76m1] |  |  |  | 70% | 2e-07 M | 30 min |  |  |  |  |  |  |  |  |  |  | 
LVRAYHSMS [Rv0288_65–73m1] |  |  | 7% | 30% | 1e-08 M | 54 min |  |  |  |  |  |  |  |  |  |  | 
TMLGHAGDM [Rv0288_10–18m1] | 10% | 4% |  | 99% | 5e-06 M | 36 min |  |  |  |  |  |  |  |  |  |  | 
LTSELPQW L | 56% | 9% | 0% | 19% |  |  | 0% | 7% | 34% | 2% |  |  |  |  |  |  | 
FLTSELPQW | 75% | 117% | 0% | 3% |  |  | 5% | 8% | 71% | 0% |  |  |  |  |  |  | 
NAMKGDLQS | 14% | 45% | 6% | 0% |  |  | 15% | 6% | 0% | 20% |  |  |  |  |  |  | 
YSDWYSPAC | 59% | 0% | 15% | 2% |  |  | 18% | 0% | 85% | 5% |  |  |  |  |  |  | 
VYCGNGTPN | 0% | 11% | 8% | 80% |  |  | 4% | 3% | 15% | 59% |  |  |  |  |  |  | 
DHAGDMAGY [Rv0288_13–21m1] |  |  |  | 141% | 1e-08 M | 18 min |  |  |  |  |  |  |  |  |  |  | 
MGDAGGYKA | 45% | 0% | 0% | 0% |  |  | 9% | 0% | 0% | 0% |  |  |  |  |  |  | 
QQWNFAGIE [Rv3875_4–12] |  |  |  |  |  |  |  | 1% |  |  | 45% | 0% | 0% | 39% | 15% | 0% | 11%
IPKLVANNT | 0% | 0% | 5% | 0% |  |  | 0% | 41% | 16% | 0% |  |  |  |  |  |  | 
GANIPAEFL | 41% | 0% | 0% | 0% |  |  | 0% | 0% | 16% | 0% |  |  |  |  |  |  | 
ALLDPSQGM | 60% | 0% | 5% | 86% |  |  | 0% | 17% | 1% | 22% |  |  |  |  |  |  | 
PQWLSANRA | 52% | 75% | 36% | 13% |  |  | 13% | 14% | 0% | 2% |  |  |  |  |  |  | 
GMGPSLIGL | 84% | 53% | 16% | 46% |  |  | 0% | 5% | 9% | 35% |  |  |  |  |  |  | 
MGPSLIGLA | 68% | 0% | 15% | 0% |  |  | 0% | 5% | 41% | 14% |  |  |  |  |  |  | 
GGANIPAEF | 4% | 0% | 0% | 70% |  |  | 0% | 0% | 57% | 5% |  |  |  |  |  |  | 
LIGLAMGDA | 59% | 0% | 0% | 5% |  |  | 0% | 0% | 0% | 0% |  |  |  |  |  |  | 
NNTRLW VYC | 0% | 3% | 19% | 89% |  |  | 4% | 4% | 11% | 20% |  |  |  |  |  |  | 
LSIVMPVGG | 33% | 0% | 0% | 46% |  |  | 0% | 0% | 29% | 0% |  |  |  |  |  |  | 
